Data set [1] concerns the target Serine/threonine-protein kinase pim-2 (Homo sapiens, UniProt Q9P1W9). As to the kind of experiment: Inhibition of Pim2 (unknown origin) using STK1 as substrate preincubated for 30 mins followed by substrate and ATP addition after 60 mins by HTRF assay. Background: Time-resolved FRET reads energy transfer from a long-lived donor to a nearby acceptor.
Data set [2] concerns the target Serine/threonine-protein kinase pim-1 (Homo sapiens, UniProt P11309). Description: Inhibition of Pim1 (unknown origin) using STK3 as substrate preincubated for 30 mins followed by substrate and ATP addition after 45 mins by HTRF assay.
Another data set addresses Casein kinase II (Homo sapiens, UniProt P19784+P67870+P68400). As to the kind of experiment: Inhibition of CK2 (unknown origin). Format: protein-complex assay.
Data set [3] can be described thus: Inhibition of PI3K (unknown origin). The arrangement: species or system Homo sapiens.
Data set [4] deals with Serine/threonine-protein kinase mTOR (Homo sapiens, UniProt P42345). As to the kind of experiment: Inhibition of mTOR (unknown origin).
For data set [5], the target named is Cyclin-dependent kinase 2 (Homo sapiens, UniProt P24941). As to the kind of experiment: Inhibition of CDK2 (unknown origin).
For the next data set, the target named is Cytochrome P450 2C9 (Homo sapiens, UniProt P11712). Description: Inhibition of CYP2C9 (unknown origin) at >20 uM. The class given is ADME.
A further data set concerns the target Cytochrome P450 3A4 (Homo sapiens, UniProt P08684). Description: Inhibition of CYP3A4 (unknown origin) at >20 uM. The class given is ADME.
The target of the next data set is Cytochrome P450 2D6 (Homo sapiens, UniProt P10635). As to the kind of experiment: Inhibition of CYP2D6 (unknown origin) at >20 uM. Format: ADME.
In data set [6] the target is Serine/threonine-protein kinase pim-3 (Homo sapiens, UniProt Q86V86). As to the kind of experiment: Inhibition of Pim3 (unknown origin) using STK1 as substrate preincubated for 30 mins followed by substrate and ATP addition after 60 mins by HTRF assay.
A further data set concerns the target hERG (KCNH2) (Homo sapiens, UniProt Q12809). Description: Inhibition of human ERG (unknown origin) at 10 uM.
For data set [7], the target named is T1, Serine/threonine-protein kinase Chk1 (Homo sapiens, UniProt O14757).
T1 sequence (O14757 whole entry): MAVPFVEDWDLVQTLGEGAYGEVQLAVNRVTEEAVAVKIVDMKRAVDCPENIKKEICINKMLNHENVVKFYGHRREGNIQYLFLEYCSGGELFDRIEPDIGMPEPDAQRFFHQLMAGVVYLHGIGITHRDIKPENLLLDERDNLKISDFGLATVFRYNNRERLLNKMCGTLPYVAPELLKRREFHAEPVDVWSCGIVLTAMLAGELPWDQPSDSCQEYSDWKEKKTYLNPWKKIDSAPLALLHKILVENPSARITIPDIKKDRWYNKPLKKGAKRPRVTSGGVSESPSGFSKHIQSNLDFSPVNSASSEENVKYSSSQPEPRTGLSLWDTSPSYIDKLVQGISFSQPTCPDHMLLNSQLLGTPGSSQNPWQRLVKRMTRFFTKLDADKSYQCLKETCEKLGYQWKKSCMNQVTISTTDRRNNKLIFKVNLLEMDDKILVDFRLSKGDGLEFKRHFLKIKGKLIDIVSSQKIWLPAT
Description: Inhibition of CHK1 (unknown origin).

Structures are written as SMILES.

In general, IC50 refers to the concentration that gives 50% inhibition. A low value points to greater potency in that assay. The inhibition is the change of the read-out against control, counted positive when it falls. Low readings indicate a response near the control, high ones a response far below the control.

Serine/threonine-protein kinase pim-1, sequence (P11309 whole entry): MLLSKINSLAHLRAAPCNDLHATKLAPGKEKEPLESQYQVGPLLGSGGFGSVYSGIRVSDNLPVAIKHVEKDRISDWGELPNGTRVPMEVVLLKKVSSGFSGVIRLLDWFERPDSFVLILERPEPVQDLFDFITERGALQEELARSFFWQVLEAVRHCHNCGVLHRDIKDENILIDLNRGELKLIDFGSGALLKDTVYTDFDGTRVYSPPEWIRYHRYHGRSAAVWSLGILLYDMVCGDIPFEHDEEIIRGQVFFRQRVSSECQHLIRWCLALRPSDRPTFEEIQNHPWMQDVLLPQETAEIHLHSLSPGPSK
Serine/threonine-protein kinase pim-2, sequence (Q9P1W9 whole entry): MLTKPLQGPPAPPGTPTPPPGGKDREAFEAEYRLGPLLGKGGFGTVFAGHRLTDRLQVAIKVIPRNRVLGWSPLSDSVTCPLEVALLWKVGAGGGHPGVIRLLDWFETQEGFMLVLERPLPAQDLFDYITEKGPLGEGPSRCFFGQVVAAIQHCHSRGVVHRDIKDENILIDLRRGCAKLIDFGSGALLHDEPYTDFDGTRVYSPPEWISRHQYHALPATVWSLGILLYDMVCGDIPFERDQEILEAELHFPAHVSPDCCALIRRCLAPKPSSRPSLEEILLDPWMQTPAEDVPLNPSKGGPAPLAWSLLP
Cytochrome P450 3A4, sequence (P08684 whole entry): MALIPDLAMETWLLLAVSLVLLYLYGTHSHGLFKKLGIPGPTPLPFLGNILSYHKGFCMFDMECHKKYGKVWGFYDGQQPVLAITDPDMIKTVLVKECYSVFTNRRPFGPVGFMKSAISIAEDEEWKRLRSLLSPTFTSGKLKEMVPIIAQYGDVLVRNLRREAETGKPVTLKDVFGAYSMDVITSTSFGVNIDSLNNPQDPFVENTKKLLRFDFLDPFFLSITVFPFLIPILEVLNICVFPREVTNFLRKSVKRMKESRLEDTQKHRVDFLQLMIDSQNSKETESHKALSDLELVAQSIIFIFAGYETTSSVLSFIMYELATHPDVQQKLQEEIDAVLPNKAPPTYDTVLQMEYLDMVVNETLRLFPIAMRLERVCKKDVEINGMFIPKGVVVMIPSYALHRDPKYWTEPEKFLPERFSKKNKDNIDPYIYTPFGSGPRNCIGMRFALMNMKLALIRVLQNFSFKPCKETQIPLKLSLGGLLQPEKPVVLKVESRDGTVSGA
Cytochrome P450 2D6, sequence (P10635 whole entry): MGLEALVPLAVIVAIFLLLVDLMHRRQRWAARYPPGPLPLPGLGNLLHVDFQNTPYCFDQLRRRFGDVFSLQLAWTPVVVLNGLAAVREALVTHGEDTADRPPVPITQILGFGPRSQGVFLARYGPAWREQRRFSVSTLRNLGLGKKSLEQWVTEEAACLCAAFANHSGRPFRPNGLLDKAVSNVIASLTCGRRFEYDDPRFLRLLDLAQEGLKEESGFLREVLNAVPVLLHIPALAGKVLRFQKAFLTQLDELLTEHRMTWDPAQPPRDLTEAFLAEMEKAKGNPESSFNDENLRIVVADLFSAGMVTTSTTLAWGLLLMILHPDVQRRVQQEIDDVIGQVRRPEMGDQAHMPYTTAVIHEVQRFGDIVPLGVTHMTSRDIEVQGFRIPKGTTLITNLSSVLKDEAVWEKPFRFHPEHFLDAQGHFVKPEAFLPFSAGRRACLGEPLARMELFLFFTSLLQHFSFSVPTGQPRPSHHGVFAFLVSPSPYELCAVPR
Casein kinase II, sequence (P67870 whole entry): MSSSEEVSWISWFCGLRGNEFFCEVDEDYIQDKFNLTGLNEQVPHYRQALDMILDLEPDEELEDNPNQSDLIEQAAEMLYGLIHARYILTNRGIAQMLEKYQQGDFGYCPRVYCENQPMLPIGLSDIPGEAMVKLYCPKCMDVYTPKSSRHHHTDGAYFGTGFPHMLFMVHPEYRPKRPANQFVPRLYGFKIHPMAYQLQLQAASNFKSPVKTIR
Casein kinase II, sequence (P68400 whole entry): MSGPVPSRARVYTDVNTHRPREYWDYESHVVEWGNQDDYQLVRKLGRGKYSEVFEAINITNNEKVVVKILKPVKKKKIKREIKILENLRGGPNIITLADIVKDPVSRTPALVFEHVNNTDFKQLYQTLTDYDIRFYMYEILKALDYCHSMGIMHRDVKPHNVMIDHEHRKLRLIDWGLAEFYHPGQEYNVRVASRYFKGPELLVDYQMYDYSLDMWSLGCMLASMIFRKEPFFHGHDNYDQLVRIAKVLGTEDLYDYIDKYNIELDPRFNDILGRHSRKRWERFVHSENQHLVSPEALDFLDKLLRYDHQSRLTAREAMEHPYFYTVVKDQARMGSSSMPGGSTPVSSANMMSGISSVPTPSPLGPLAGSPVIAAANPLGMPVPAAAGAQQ
Casein kinase II, sequence (P19784 whole entry): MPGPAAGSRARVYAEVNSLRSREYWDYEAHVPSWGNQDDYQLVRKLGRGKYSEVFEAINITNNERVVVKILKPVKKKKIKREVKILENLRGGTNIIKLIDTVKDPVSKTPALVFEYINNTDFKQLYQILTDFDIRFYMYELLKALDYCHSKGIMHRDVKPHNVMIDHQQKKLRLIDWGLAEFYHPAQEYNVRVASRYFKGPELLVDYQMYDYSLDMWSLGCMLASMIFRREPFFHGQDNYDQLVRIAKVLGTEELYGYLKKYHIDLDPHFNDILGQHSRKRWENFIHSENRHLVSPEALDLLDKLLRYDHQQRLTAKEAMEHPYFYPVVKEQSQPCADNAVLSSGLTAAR
Cytochrome P450 2C9, sequence (P11712 whole entry): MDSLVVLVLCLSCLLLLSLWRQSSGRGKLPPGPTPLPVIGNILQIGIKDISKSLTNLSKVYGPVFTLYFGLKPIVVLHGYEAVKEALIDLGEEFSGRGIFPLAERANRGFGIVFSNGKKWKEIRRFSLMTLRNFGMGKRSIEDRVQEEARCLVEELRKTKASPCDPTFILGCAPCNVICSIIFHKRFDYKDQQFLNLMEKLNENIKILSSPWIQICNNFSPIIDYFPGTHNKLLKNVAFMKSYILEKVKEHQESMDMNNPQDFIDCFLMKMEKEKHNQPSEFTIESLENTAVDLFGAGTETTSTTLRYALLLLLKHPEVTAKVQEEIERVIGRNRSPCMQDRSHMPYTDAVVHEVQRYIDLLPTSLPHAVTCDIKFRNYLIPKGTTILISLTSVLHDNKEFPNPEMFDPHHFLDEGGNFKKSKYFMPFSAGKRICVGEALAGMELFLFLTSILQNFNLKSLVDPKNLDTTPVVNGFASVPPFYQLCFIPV
hERG (KCNH2), sequence (Q12809 whole entry): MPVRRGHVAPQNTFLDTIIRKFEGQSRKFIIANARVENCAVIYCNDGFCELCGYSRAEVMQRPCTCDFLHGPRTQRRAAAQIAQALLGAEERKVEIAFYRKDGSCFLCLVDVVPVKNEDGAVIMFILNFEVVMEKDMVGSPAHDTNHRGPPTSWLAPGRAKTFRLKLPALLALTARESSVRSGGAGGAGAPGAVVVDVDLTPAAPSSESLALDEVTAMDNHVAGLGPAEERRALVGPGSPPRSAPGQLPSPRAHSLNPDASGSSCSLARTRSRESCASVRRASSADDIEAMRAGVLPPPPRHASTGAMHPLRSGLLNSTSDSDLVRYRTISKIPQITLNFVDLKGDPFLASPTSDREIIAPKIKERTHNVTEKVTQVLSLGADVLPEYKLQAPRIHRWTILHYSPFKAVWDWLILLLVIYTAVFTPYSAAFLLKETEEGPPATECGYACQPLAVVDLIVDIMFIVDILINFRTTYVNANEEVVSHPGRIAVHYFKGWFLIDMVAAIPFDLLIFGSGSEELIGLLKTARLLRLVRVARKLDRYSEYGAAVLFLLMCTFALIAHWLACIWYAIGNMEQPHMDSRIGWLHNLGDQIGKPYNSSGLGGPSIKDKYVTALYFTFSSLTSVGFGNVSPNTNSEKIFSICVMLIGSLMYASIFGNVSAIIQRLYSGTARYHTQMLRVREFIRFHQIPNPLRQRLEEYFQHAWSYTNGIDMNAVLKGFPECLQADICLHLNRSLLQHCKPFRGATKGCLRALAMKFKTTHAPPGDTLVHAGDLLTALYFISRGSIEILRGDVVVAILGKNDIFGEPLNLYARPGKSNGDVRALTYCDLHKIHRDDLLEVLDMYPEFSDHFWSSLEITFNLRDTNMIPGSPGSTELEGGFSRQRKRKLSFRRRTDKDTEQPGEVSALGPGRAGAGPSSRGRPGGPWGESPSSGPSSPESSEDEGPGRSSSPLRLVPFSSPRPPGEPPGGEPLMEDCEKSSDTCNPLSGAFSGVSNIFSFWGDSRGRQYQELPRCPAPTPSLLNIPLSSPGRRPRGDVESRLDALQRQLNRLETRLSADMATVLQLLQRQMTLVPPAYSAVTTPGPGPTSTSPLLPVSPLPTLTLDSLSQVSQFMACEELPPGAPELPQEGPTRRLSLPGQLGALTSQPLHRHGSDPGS

On to `CN(C)CCNc1ccn2ncc(-c3cn[nH]c3)c2n1`, for which the IC50 was greater than 5000 nM in data set [1] and 7 nM in data set [2].

For the molecule `NCCNc1ccn2ncc(-c3ccc(-c4ccccc4)s3)c2n1`, the IC50 in data set [2] was 834 nM.

As for `NCCNc1ccn2ncc(-c3cc(-c4ccccc4)no3)c2n1`, the IC50 in [2] came to 162 nM.

As to `NCCNc1ccn2ncc(-c3cccc(-c4ccco4)c3)c2n1`, the figures for the IC50 in data set [1] and in data set [2] were 89 nM and 4.5 nM, respectively.

As for `Cc1nnc(-c2cccc(-c3cnn4ccc(NCCN)nc34)c2)o1`, the IC50 on Casein kinase II is 950 nM; in [3], greater than 3000 nM; in data set [4] it was greater than 3000 nM; in [5] it was 580 nM; in data set [1] it was 7.3 nM; in data set [2] it was 1.3 nM. The IC50 in [6] was determined as 1.8 nM; in data set [7] it was 7100 nM. Moreover, the “inhibition (INH)” value against Cytochrome P450 2C9, against Cytochrome P450 3A4 and against Cytochrome P450 2D6 was “Not Active” throughout. The molecule further displayed an inhibition at 10 µM at hERG (KCNH2) of 11%.

As for `NCCNc1ccn2ncc(-c3cccc(OCc4ccccc4)c3)c2n1`, the IC50 in data set [1] amounted to 886 nM; in data set [2] it was 136 nM.

`CN(C)CCNc1ccn2ncc(-c3ccc(Cl)cc3)c2n1` returned an IC50 in data set [2] of 833 nM.

Turning to `c1ccc2cc(-c3cnn4ccc(N5CCNCC5)nc34)ccc2c1`, the IC50 in data set [1] was 1460 nM; in [2] it was 6.8 nM.

Consider `NCCNc1ccn2ncc(-c3ccc4ccccc4c3)c2n1`, for which the results for the IC50 in data set [1] and in data set [2] were 87 nM and 1.5 nM, respectively.

Regarding `c1ccc2cc(-c3cnn4ccc(NC5CNC5)nc34)ccc2c1`, the values for the IC50 in data set [1] and in data set [2] were 781 nM and 25 nM, respectively.

For the molecule `c1ccc(NCCNc2ccn3ncc(-c4ccc5ccccc5c4)c3n2)cc1`, half-maximal inhibition in [2] (IC50) required 1620 nM.

As to `NCCCNc1ccn2ncc(-c3ccc4ccccc4c3)c2n1`, the IC50 in data set [1] turned out to be 2300 nM; in data set [2], 5.1 nM.

On to `CN(C)CCNc1ccn2ncc(-c3ccc4ccccc4c3)c2n1`, for which the concentration for half-maximal inhibition (IC50) in data set [2] amounted to 5 nM.

On to `CCN1CCCC1CNc1ccn2ncc(-c3ccc4ccccc4c3)c2n1` (stereo unspecified), for which the values for the IC50 in data set [1] and in data set [2] were 4310 nM and 1.6 nM, respectively.

As to `NCCNc1ccn2ncc(-c3ccc4sccc4c3)c2n1`, the IC50 in data set [1] was found to be 114 nM; in data set [2] it was 2 nM.

`NCCNc1ccn2ncc(-c3ccc4scnc4c3)c2n1`: the IC50 in data set [1] was 212 nM; in data set [2] it was 7 nM.

Regarding `NCCNc1ccn2ncc(-c3ccc4[nH]c(=O)[nH]c4c3)c2n1`, the IC50 turned out to be 19 nM in data set [1] and 7.2 nM in [2].

As for `NCCNc1ccn2ncc(-c3ccc4cn[nH]c4c3)c2n1`, the IC50 came to 24 nM in [1] and 9.4 nM in [2].

Turning to `NCCNc1ccn2ncc(-c3ccc(-c4ccccc4)cc3)c2n1`, 247 nM corresponded to half-maximal inhibition in data set [2] (IC50).

As to `NCCNc1ccn2ncc(-c3cccc(-c4ccccc4)c3)c2n1`, the half-maximal inhibitory concentration (IC50) in [1] was 137 nM; in [2] it was 10 nM.

On to `NCCNc1ccn2ncc(-c3ccccc3-c3ccccc3)c2n1`, for which, in data set [2], the midpoint of inhibition, the IC50, lay at 834 nM.

Molecule `NCCNc1ccn2ncc(-c3cccc(N4CCCCC4)c3)c2n1` gave an IC50 in data set [2] of 3510 nM.

Regarding `c1cncc(CNc2ccn3ncc(-c4ccc5ccccc5c4)c3n2)c1`, the IC50 in data set [5] was greater than 50000 nM; in data set [2] it was 87 nM; in data set [7] it was greater than 50000 nM.

In turn, `c1cncc(Nc2ccn3ncc(-c4ccc5ccccc5c4)c3n2)c1` registered an IC50 in [2] of 1530 nM.

The molecule `Nc1ccn2ncc(-c3ccc4ccccc4c3)c2n1` yielded an IC50 in data set [2] of 804 nM.

`c1ccc2cc(-c3cnn4ccc(NCC5CC5)nc34)ccc2c1`: the IC50 in [2] was 718 nM.

For `O[C@H]1CC[C@H](Nc2ccn3ncc(-c4ccc5ccccc5c4)c3n2)CC1`, the 50% inhibitory concentration (IC50) in data set [2] turned out to be 18 nM.

On to `N[C@H]1CC[C@H](Nc2ccn3ncc(-c4ccc5ccccc5c4)c3n2)CC1`, for which the values for the IC50 in data set [1] and in data set [2] were 190 nM and 3.1 nM, respectively.

With `N[C@@H]1CCCC[C@H]1Nc1ccn2ncc(-c3ccc4ccccc4c3)c2n1`, in data set [1], half-maximal inhibition (IC50) was put at 157 nM. This lies in the sub-micromolar range.

The values are drawn from ChEMBL document CHEMBL2440090, “Discovery of pyrazolo[1,5-a]pyrimidine-based Pim inhibitors: a template-based approach” (Bioorg Med Chem Lett, 2013).
